The text below walks through data of patent EP4119128A1, “PHARMACEUTICAL COMPOSITION FOR THE ORAL ADMINISTRATION OF POORLY SOLUBLE DRUGS COMPRISING AN AMORPHOUS SOLID DISPERSION” (Dr. Falk Pharma GmbH, priority 2021, dated 2023).

Series [1] is described as follows: Hygroscopicity of the drug substance. The series is classed as physicochemical.
The nature of series [2]: Saturation solubility, shake-flask method, quantification by HPLC/UV. It is filed as physicochemical. The settings on record: for solubility at 24 h: 37 °C, thermodynamic from solid. The protocol:
The saturation solubility of RhuDex® choline salt determined at 37°C after 24 hours by HPLC/UV using the shake-flask method is at around or below 0.001 mg/mL when using standard media or buffers such as 0.1 N hydrochloric acid pH 1.2 and 50 mM phosphate buffer pH 7.0 or biorelevant media such as Fasted-State Simulated Intestinal Fluid (i.e. FaSSIF) pH 6.5 and Fed-State Simulated Intestinal Fluid (FeSSIF) pH 5.0.
When increasing the pH value above the pKa and beyond the physiological conditions (i.e. pH > 8), the opposite effect occurs as the molecule is transferred into its negatively charged and soluble ion. […] However, these enabling technologies are neither standard nor easily applicable as they directly affect the physical properties of the drug substance and thereby its thermodynamic stability. Therefore, there is an extremely high risk of failure associated with these technologies concluding that the drug substance cannot be further developed into a suitable, stable, bioavailable and commercially viable formulation. Table 2: Saturation solubility of RhuDex® choline salt in biorelevant media (shake-flask method, 24 h at 37°C, quantification by HPLC/UV)

A short description of series [3]: Two-stage biorelevant in vitro dissolution test (acid stage pH 2.0, buffer stage pH 7.0, non-sink conditions). It is filed as physicochemical. The source says: To characterize the in vitro performance of the gastro-resistant granules that contain the RhuDex® choline salt as an amorphous solid dispersion a predictive biorelevant dissolution method has been developed. The design of the method comprises a two-stage in vitro dissolution test that simulates the conditions of the gastrointestinal passage. In a first step the formulation is exposed to simulated gastric fluid where the enteric protection provided by the outer hypromellose succinate acetate layer should ensure that there is no premature drug substance release from the granules. The subsequent step simulates the condition of the upper intestine where the enteric polymer should immediately dissolve and where the drug substance release should start. The gastro-resistance and the release profile are measured by the amount of RhuDex® choline salt dissolved in the acid and buffer medium. The established test system relies on the use of standard media and buffer systems without the addition of any surfactants or bile acids. […] The extent of the spring and parachute effect should be measurable in the simulated intestinal fluid. The parameters of the biorelevant dissolution method are presented below. Summarizing the established conditions for testing the biorelevant dissolution of RhuDex® choline salt gastro-resistant granules, the studies are conducted under non-sink conditions as follows: […]

A short description of series [4]: Apparent permeation across Caco-2 cell monolayers. It is filed as in vitro ADME, human. The settings on record: human, Caco-2; apical buffer pH 7.0, basolateral buffer pH 7.4; test concentration 127 µg/ml. The protocol: (§1) The biorelevant dissolution profile of the embodiment positively affects the second relevant parameter predicting the compound's oral bioavailability, i.e. its permeability. As shown in apparent permeation studies across monolayers formed by human colon carcinoma cell line Caco-2 the spring and parachute effect observed for formulated RhuDex® choline salt also leads to a higher permeation rate when compared with its crystalline and unformulated counterpart. The permeation assays were performed using an apical buffer at a pH value of 7.0 and a basolateral buffer at a pH value of 7.4. The test concentration was set to 127 µg/ml and should represent a potential clinical dose of 31.75 mg RhuDex® choline salt administrered in a volume of 250 ml (i.e. 31.75 mg/250 ml = 0.127 mg/ml). With an apparent permeation value (Papp) of less than 1 (i.e. 0.12 x 10^-6 cm/s) the permeability of crystalline RhuDex® choline salt across Caco-2 cell monolayers must be classified as poor and a low bioavailability of unformulated drug substance can be estimated. However, the Papp value increased to 2.7 x 10^-6 cm/s when using an amorphous solid dispersion of RhuDex® choline salt in the same experiment indicating a remarkable shift from low to moderate permeability. This effect can be cleary attributed to the embodiment.

The test system of series [5] is monolayers formed by human colon carcinoma cell line Caco-2. Description: Apparent permeation across Caco-2 cell monolayers. It is filed as in vitro ADME. The settings on record: Caco-2 cell monolayers; 127 µg/ml. The protocol:
as §1

Series [6] is described as follows: Saturation solubility, shake-flask method, quantification by HPLC/UV. It is filed as physicochemical. As to conditions: 0.01 N HCl, 37 °C, pH 2, simulated gastric fluid, thermodynamic from solid, 0.01 N HCl pH 2; 24 h at 37°C.
Series [7] is described as follows: pKa value of the drug substance. The settings on record: free acid. The series is classed as physicochemical.

Structures can show the parent of a compound that is named as a salt. Where two headings read alike, the source gives them in different places. Where only a bound is given, the exact number is not on record here.

Turning to `O=C(NCC(F)F)c1ccc(-n2[nH]c3c(nnc4c(F)cccc43)c2=O)cc1` [RhuDex® choline salt, N-(2,2-difluoroethyl)-4-(6-fluoro-3-oxo-1,3-dihydropyrazolo[4,3-c]cinnolin-2-yl)-benzamide], the hygroscopicity result in series [1] is “only slightly hygroscopic”. For the same molecule, the “biopharmaceutics classification system (BCS) class” value in series [2] was “either Class II (low solubility/high permeability) or Class IV (low solubility/low permeability)”. Besides, the solubility at 24 h in series [2] (50 mM borate buffer, pH 9.5, aqueous buffer, 50 mM borate buffer, pH 9.5, read-out: solubility) was 1300 µg/mL; in series [2] (50 mM phosphate buffer, pH 7, aqueous buffer, Phosphate buffer 50 mM, pH 7.0, 24 h at 37°C, read-out: Saturation solubility), 0.7 µg/mL; in series [2] (50 mM phosphate buffer, pH 7, aqueous buffer, pH 7.0, read-out: solubility of the drug substance) it was roughly 1 µg/mL; in series [2] (aqueous buffer, 37°C, 24 hours, shake-flask, 0.1 N hydrochloric acid pH 1.2, 50 mM phosphate buffer pH 7.0, FaSSIF pH 6.5, FeSSIF pH 5.0, read-out: saturation solubility), no more than 1 µg/mL; in series [2] (FaSSIF, pH 6.5, fassif, FaSSIF, pH 6.5, 24 h at 37°C, read-out: Saturation solubility), 1.1 µg/mL; in series [2] (FeSSIF, pH 5, fessif, FeSSIF, pH 5.0, 24 h at 37°C, read-out: Saturation solubility), 0.1 µg/mL. Further, the solubility at 24 h in series [2] (water, pH 9.9, water, in water, final pH value of the solution 9.9, read-out: solubility) was roughly 10000 µg/mL; in series [6], 0.1 µg/mL. Besides, in series [2] (dose 31.75 mg, minimum solubility 0.001 mg/mL, physiologically relevant conditions), the “volume required to completely dissolve one dose” value is on record as “more than 30 L”. Further, the “amount in solution when presented in crystalline form” value in series [3] (0.001 mg/ml x 460 ml, buffer pH 7.0) turned out to be 0.46 mg. Moreover, the “dose in solution when presented in crystalline form” value in series [3] (calculated from solubility 0.001 mg/ml in 460 ml buffer pH 7.0, dose 31.75 mg) is 1.4%. The Papp at 127 µg/ml in series [4] is 0.12 ×10⁻⁶ cm/s. The permeability classification entry in series [5] was “poor”.

As for `O=C(NCC(F)F)c1ccc(-n2[nH]c3c(nnc4c(F)cccc43)c2=O)cc1` [RhuDex® free acid, 4-(6-fluoro-3-oxo-1,3-dihydro-pyrazolo[4,3-c]cinnolin-2-yl)-N-(2,2-difluoro-ethyl)-benzamide], the pKa in series [7] was found to be 5.8.
